Assay results published in patent US20090023799A1, “CRYSTALS OF (2-AMINO-4,5,6,7-TETRAHYDROBENZO[b]THIEN-3-YL)(4-CHLOROPHENYL)METHANONE” (priority 2007, published 2009).
In brackets after ≈: the same amount, converted by molar mass. Read-outs that look alike come from different tables or passages of the source.

Columns and labels:
[1] = Stability to mechanical grinding/milling (ball-milling, XRPD); assay type: physicochemical; settings: XRPD analysis of the milled material
Description: (§1) The crystal forms of T-62 are preferably substantially stable to grinding. Stability to grinding may be assessed by measurement of an appropriate physical property before and after grinding. Where the physical property remains substantially unchanged, substantial stability to grinding is indicated. Suitable physico-chemical properties for measurement include a melting point, a X-ray diffraction pattern, an infra red absorption spectrum and a Raman spectrum, particularly the X-ray diffraction pattern. For example, Form I crystal form of T-62 is stable to mechanical milling and cryogrinding as indicated by XRPD analyses of the milled and ground material, respectively.
Stability to mechanical grinding/milling may be tested, e.g., by employing a small stainless steel cylinder. The cylinder is charged with a weighted amount of a crystal form of T-62 and a stainless steel ball is added, the cylinder is capped and the unit is placed on a Retsch Mixer Mill (Type MM 200) for a total of 3 min at a frequency of 30/s (ball-milling).

[2] = Stability to cryogrinding (XRPD); assay type: physicochemical; settings: XRPD analysis of the ground material
Description: as §1
Stability to cryogrinding may be tested, e.g., by employing a polycarbonate freezer mill tube. The tube is charged with a weighted amount of a crystal form of T-62 and a stainless steel rod is added, the tube is capped and the unit is shaken in a SPEX Certiprep 6750 Freezer Mill for a total of 0.6 min in liquid nitrogen at a rate of 10 Hz.

[3] = Approximate solubilities of Form I crystals of T-62 (solvent added until clear solution); assay type: physicochemical; settings: RT
Method: Solubilities for Form I crystals of T-62 may be estimated based on total solvent used to give a clear solution. A test solvent, either reagent or HPLC (high pressure liquid chromatography) grade, is added in measured aliquots, e.g., 200 or 500 μL, to an accurately weighed sample of T-62 (typically 50 to 90 mg). For some samples, sonication is applied between solvent additions to aid dissolution. Generally, solvent is added until a clear solution is obtained. Actual solubilities may be greater than those shown in Table 7 because of the volume of the solvent portions utilized or a slow rate of dissolution.

[4] = Moisture sorption/desorption analysis; assay type: physicochemical
Method: Moisture sorption/desorption analyses may be performed on a VTI SGA-100 Vapor Sorption Analyzer, or a similar instrument. Sorption and desorption data are collected, e.g., over a range of 5 to 95% relative humidity (RH) at 10% RH intervals under a nitrogen purge. Samples need not to be dried prior to analysis. Equilibrium criteria used for analysis are, e.g., less than 0.01% weight change in 5 min, with a maximum equilibration time of 3 h if the weight criterion is not met. NaCl and PVP may be used as calibration standards.

[5] = Solid-state conversion of crystal forms on heating or humidity; assay type: physicochemical
[6] = target: T1, adenosine A1 receptors (Homo sapiens, UniProt P30542); settings: U.S. Pat. No. 6,248,774 and No. 6,489,356, cited from earlier work
T1 sequence (P30542 1-326): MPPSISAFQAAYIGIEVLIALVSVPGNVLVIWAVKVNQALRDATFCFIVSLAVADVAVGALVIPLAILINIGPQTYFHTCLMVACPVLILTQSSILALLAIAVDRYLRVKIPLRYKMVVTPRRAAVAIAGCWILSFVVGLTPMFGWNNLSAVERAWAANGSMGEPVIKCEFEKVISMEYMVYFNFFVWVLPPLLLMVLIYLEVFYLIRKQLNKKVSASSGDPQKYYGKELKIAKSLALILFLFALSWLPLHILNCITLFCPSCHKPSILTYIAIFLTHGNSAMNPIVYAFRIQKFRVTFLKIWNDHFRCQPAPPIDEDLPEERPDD

## Nc1sc2c(c1C(=O)c1ccc(Cl)cc1)CCCC2 [Form I, (2-amino-4,5,6,7-tetrahydrobenzo[b]thiophen-3-yl)(4-chlorophenyl)methanone]
[1]
  Stability to mechanical milling: stable
[2]
  Stability to cryogrinding: stable
[3]; water
  solubility: practically insoluble
[3]; aqueous with cosolvent or surfactant or cyclodextrin, thermodynamic from solid, ACN:H2O - 1:1, read-out: Solubility
  solubility: 8.4 mg/mL (≈ 28.8 mM)
[3]; organic solvent or mixture, thermodynamic from solid, ACN, read-out: Solubility
  solubility: 11.1 mg/mL (≈ 38 mM)
[3]; organic solvent or mixture, thermodynamic from solid, CHCl3, read-out: Solubility
  solubility: 175 mg/mL (≈ 598 mM)
[3]; organic solvent or mixture, thermodynamic from solid, EtOAc, read-out: Solubility
  solubility: 67.8 mg/mL (≈ 232 mM)
[3]; organic solvent or mixture, thermodynamic from solid, EtOH:H2O - 95:5, read-out: Solubility
  solubility: 12.8 mg/mL (≈ 43.9 mM)
[3]; organic solvent or mixture, thermodynamic from solid, EtOH, read-out: Solubility
  solubility: 16.6 mg/mL (≈ 56.9 mM)
[3]; organic solvent or mixture, thermodynamic from solid, IPA, read-out: Solubility
  solubility: 13.1 mg/mL (≈ 44.9 mM)
[3]; organic solvent or mixture, thermodynamic from solid, MEK, read-out: Solubility
  solubility: 132 mg/mL (≈ 453 mM)
[3]; organic solvent or mixture, thermodynamic from solid, MeOH:H2O - 95:5, read-out: Solubility
  solubility: 8.7 mg/mL (≈ 29.8 mM)
[3]; organic solvent or mixture, thermodynamic from solid, MeOH, read-out: Solubility
  solubility: 19.8 mg/mL (≈ 67.9 mM)
[3]; organic solvent or mixture, thermodynamic from solid, N,N-dimethylformamide (DMF), read-out: Solubility
  solubility: 129 mg/mL (≈ 441 mM)
[3]; organic solvent or mixture, thermodynamic from solid, THF, read-out: Solubility
  solubility: 338 mg/mL (≈ 1160 mM)
[3]; organic solvent or mixture, thermodynamic from solid, acetone, read-out: Solubility
  solubility: 59.8 mg/mL (≈ 205 mM)
[3]; organic solvent or mixture, thermodynamic from solid, cyclohexane, read-out: Solubility
  solubility: 9.8 mg/mL (≈ 33.6 mM)
[3]; organic solvent or mixture, thermodynamic from solid, di-n-butyl ether, read-out: Solubility
  solubility: 21.4 mg/mL (≈ 73.3 mM)
[3]; organic solvent or mixture, thermodynamic from solid, dichloromethane, read-out: Solubility
  solubility: 85.3 mg/mL (≈ 292 mM)
[3]; organic solvent or mixture, thermodynamic from solid, diisopropyl ether, read-out: Solubility
  solubility: 5.9 mg/mL (≈ 20.2 mM)
[3]; organic solvent or mixture, thermodynamic from solid, dimethylsulfoxide (DMSO), read-out: Solubility
  solubility: 183 mg/mL (≈ 626 mM)
[3]; organic solvent or mixture, thermodynamic from solid, dioxane, read-out: Solubility
  solubility: 74.9 mg/mL (≈ 257 mM)
[3]; organic solvent or mixture, thermodynamic from solid, hexanes, read-out: Solubility
  solubility: 5.6 mg/mL (≈ 19.2 mM)
[3]; organic solvent or mixture, thermodynamic from solid, nitromethane, read-out: Solubility
  solubility: 12 mg/mL (≈ 41.1 mM)
[3]; organic solvent or mixture, thermodynamic from solid, octanol, read-out: Solubility
  solubility: 19.7 mg/mL (≈ 67.5 mM)
[3]; organic solvent or mixture, thermodynamic from solid, toluene, read-out: Solubility
  solubility: 45.7 mg/mL (≈ 157 mM)
[4]
  Crystal form after moisture sorption/desorption analysis: remains the same
  Weight gain or loss in moisture sorption/desorption analysis: no significant weight gain or loss
[4]; moisture sorption/desorption analysis
  Hygroscopicity: non-hygroscopic

## Nc1sc2c(c1C(=O)c1ccc(Cl)cc1)CCCC2 [Form II, (2-amino-4,5,6,7-tetrahydrobenzo[b]thiophen-3-yl)(4-chlorophenyl)methanone]
[4]; at 95% RH
  Weight gain in moisture sorption/desorption analysis: 0.1%

## Nc1sc2c(c1C(=O)c1ccc(Cl)cc1)CCCC2 [Form III, (2-amino-4,5,6,7-tetrahydrobenzo[b]thiophen-3-yl)(4-chlorophenyl)methanone]
[5]; heating to about 104° C. under argon purge
  Crystal form conversion on heating: converted to the Form I crystal form
[5]; high humidity, solvent is lost
  Crystal form conversion under high humidity: converts to Form I crystal form
[5]; upon heating
  Crystal form conversion upon heating: converts to Form I crystals

## Nc1sc2c(c1C(=O)c1ccc(Cl)cc1)CCCC2 [Form IV, (2-amino-4,5,6,7-tetrahydrobenzo[b]thiophen-3-yl)(4-chlorophenyl)methanone]
[5]; heating for 2 min at 75° C. in a sealed capillary
  Crystal form conversion on heating: converted to the Form IV crystal form

## Nc1sc2c(c1C(=O)c1ccc(Cl)cc1)CCCC2 [Form T-62, (2-amino-4,5,6,7-tetrahydrobenzo[b]thiophen-3-yl)(4-chlorophenyl)methanone]
[6]
  Adverse side effects associated with administration of adenosine: devoid of the adverse side effects
[6]; orally effective
  Effect on inflammatory and neuropathic pain: reduce inflammatory and neuropathic pain
